Legend:
Assay in all cases: relative viability (nuclei count vs DMSO), 5 days (fraction); higher = more cells survive
[1] = compound: C[C@@]1(C(=O)Nc2ccc(F)nc2)CCCN1c1nc(Nc2cc(C3CC3)n[nH]2)c2cccn2n1 + CC(=O)Nc1cccc(-n2c(=O)n(C3CC3)c(=O)c3c(Nc4ccc(I)cc4F)n(C)c(=O)c(C)c32)c1 [Trametinib] (partner 0.02 µM)
Summary of the method: (§1)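 Values are medians from duplicate plates. Each reflects relative viability, defined as the nuclei count of treated wells over that of vehicle wells. Lung cancer cell lines in 1536-well plates were pin-tool dosed one day after seeding with one drug alone or with a fixed anchor-drug dose plus five library-drug doses (not always all listed) in √10 steps, then fixed, stained and imaged at 4× after 5 days.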

[2] = compound: C[C@@]1(C(=O)Nc2ccc(F)nc2)CCCN1c1nc(Nc2cc(C3CC3)n[nH]2)c2cccn2n1 + Nc1ncn([C@H]2C[C@H](O)[C@@H](CO)O2)c(=O)n1 [Decitabine] (partner 2 µM)
Summary of the method: as §1

[3] = compound: C[C@@]1(C(=O)Nc2ccc(F)nc2)CCCN1c1nc(Nc2cc(C3CC3)n[nH]2)c2cccn2n1 + C[C@]1(O)C[C@@H](c2nc(-c3ccc4ccc(-c5ccccc5)nc4c3)c3c(N)nccn32)C1 [Linsitinib] (partner 1 µM)
Summary of the method: as §1

[4] = compound: CC1(C)CNc2cc(NC(=O)c3cccnc3NCc3ccncc3)ccc21 [Motesanib] + CCNC(=O)c1noc(-c2cc(C(C)C)c(O)cc2O)c1-c1ccc(CN2CCOCC2)cc1 [Luminespib] (partner 0.01 µM)
Summary of the method: as §1

Cell Line	relative viability ([1]; first compound 0.04 µM)	relative viability ([1]; first compound 0.1265 µM)	relative viability ([1]; first compound 0.4 µM)	relative viability ([1]; first compound 1.265 µM)	relative viability ([2]; first compound 0.04 µM)	relative viability ([2]; first compound 0.1265 µM)	relative viability ([2]; first compound 0.4 µM)	relative viability ([2]; first compound 1.265 µM)	relative viability ([3]; first compound 0.04 µM)	relative viability ([3]; first compound 0.1265 µM)	relative viability ([3]; first compound 0.4 µM)	relative viability ([3]; first compound 1.265 µM)	relative viability ([4]; first compound 0.01 µM)	relative viability ([4]; first compound 0.03162 µM)	relative viability ([4]; first compound 0.1 µM)	relative viability ([4]; first compound 0.3162 µM)	relative viability ([4]; first compound 1 µM)
201T	0.718	0.663	0.637	0.676	0.813	0.714	0.671	0.862	0.97	0.97	0.908	1.04	1.02	1.02	1.11	1.01	1.05
A549					0.284	0.248	0.326	0.199	0.681	0.571	0.401	0.79					
A-427	0.644	0.548	0.537	0.579	0.514	0.413	0.489	0.501	1.11	1.05	1.08	1.16	0.872	1.05	0.769	1.24	1.05
ABC-1					1.01	0.714	0.628	0.785	1.05	0.711	0.619	0.777	0.637	0.867	0.556	0.716	0.866
BEN	1.07	1.01	1.04	0.979	0.702	0.583	0.737	0.562	0.895	1.24	0.766	1.04	0.331	0.46	0.393	0.498	0.387
CAL-12T	0.333	0.214	0.351	0.253					0.827	0.849	0.78	0.817	0.371	0.375	0.195	0.567	0.175
COR-L23	0.59	0.542	0.441	0.269	0.413	0.412	0.315	0.267	0.818	0.855	0.768	0.705	0.605	0.694	0.728	0.665	0.738
COR-L 105	0.44	0.42	0.439	0.399	0.697	0.547	0.541	0.588	0.796	0.808	0.627	0.946	0.737	0.894	0.896	0.73	0.843
Calu-6									0.91	0.895	0.833	0.859					
ChaGo-K-1	0.827	0.869	0.81	0.823	0.511	0.52	0.499	0.503					0.525	0.656	0.589	0.552	0.588
EBC-1									0.953	0.76	0.706	0.891					
EKVX	0.433	0.227	0.355	0.288	0.29	0.246	0.357	0.288	0.989	0.742	0.725	0.964	0.847	0.836	0.833	0.877	0.826
